Experimental data: PubChem BioAssay (NCI)
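48-hour exposure; five concentrations; linearly interpolated endpoints. TGI denotes the concentration required for complete inhibition of growth.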

Tests used:
Experiment in all cases: inhibition of tumour cell growth, NCI panel, 48 h
786-0 renal = test system: 786-0 renal
A498 renal = test system: A498 renal
A549 NSCLC = test system: A549 NSCLC
ACHN renal = test system: ACHN renal
BT-549 breast = test system: BT-549 breast
CAKI-1 renal = test system: CAKI-1 renal
CCRF-CEM leukemia = test system: CCRF-CEM leukemia
COLO 205 colon = test system: COLO 205 colon
DU-145 prostate = test system: DU-145 prostate
EKVX NSCLC = test system: EKVX NSCLC
HCC-2998 colon = test system: HCC-2998 colon
HCT-116 colon = test system: HCT-116 colon
HCT-15 colon = test system: HCT-15 colon
HL-60(TB) leukemia = test system: HL-60(TB) leukemia
HOP-62 NSCLC = test system: HOP-62 NSCLC
HOP-92 NSCLC = test system: HOP-92 NSCLC
HS 578T breast = test system: HS 578T breast
HT29 colon = test system: HT29 colon
IGROV1 ovarian = test system: IGROV1 ovarian
K-562 leukemia = test system: K-562 leukemia
KM12 colon = test system: KM12 colon
LOX IMVI melanoma = test system: LOX IMVI melanoma
M14 melanoma = test system: M14 melanoma
MCF7 breast = test system: MCF7 breast
MDA-MB-231 breast = test system: MDA-MB-231 breast
MDA-MB-435 = test system: MDA-MB-435
MDA-N = test system: MDA-N
MOLT-4 leukemia = test system: MOLT-4 leukemia
NCI-H23 lung = test system: NCI-H23 lung
NCI-H460 lung = test system: NCI-H460 lung
NCI-H522 lung = test system: NCI-H522 lung
NCI/ADR-RES ovarian = test system: NCI/ADR-RES ovarian
OVCAR-3 ovarian = test system: OVCAR-3 ovarian
OVCAR-4 ovarian = test system: OVCAR-4 ovarian
OVCAR-5 ovarian = test system: OVCAR-5 ovarian
OVCAR-8 ovarian = test system: OVCAR-8 ovarian
PC-3 prostate = test system: PC-3 prostate
RXF 393 renal = test system: RXF 393 renal
SF-268 CNS = test system: SF-268 CNS
SF-295 CNS = test system: SF-295 CNS
SF-539 CNS = test system: SF-539 CNS
SK-MEL-2 melanoma = test system: SK-MEL-2 melanoma
SK-MEL-28 melanoma = test system: SK-MEL-28 melanoma
SK-MEL-5 melanoma = test system: SK-MEL-5 melanoma
SN12C renal = test system: SN12C renal
SNB-19 CNS = test system: SNB-19 CNS
SR leukemia = test system: SR leukemia
SW-620 colon = test system: SW-620 colon
T-47D breast = test system: T-47D breast
TK-10 renal = test system: TK-10 renal
U251 CNS = test system: U251 CNS
UACC-257 melanoma = test system: UACC-257 melanoma
UACC-62 melanoma = test system: UACC-62 melanoma
UO-31 renal = test system: UO-31 renal
NCI-H226 lung = test system: NCI-H226 lung
SNB-75 CNS = test system: SNB-75 CNS
MALME-3M melanoma = test system: MALME-3M melanoma
RPMI-8226 leukemia = test system: RPMI-8226 leukemia
SK-OV-3 ovarian = test system: SK-OV-3 ovarian

Compound `CC(C)(C)c1cc2c(O)c(c1)C(c1ccccc1)c1cc(C(C)(C)C)cc(c1O)Cc1cc(C(C)(C)C)cc(c1O)C(c1ccccc1)c1cc(C(C)(C)C)cc(c1O)C2` (configuration not stated) has a TGI (786-0 renal) of over 100 µM, a TGI (A498 renal) of over 100 µM and a TGI (A549 NSCLC) of over 100 µM. For the same compound, the TGI (ACHN renal) was over 100 µM, the TGI (BT-549 breast) was over 100 µM and the TGI (CAKI-1 renal) was over 100 µM. For the same compound, the TGI (CCRF-CEM leukemia) was over 100 µM, the TGI (COLO 205 colon) was over 100 µM and the TGI (DU-145 prostate) was over 100 µM. It also gave a TGI (EKVX NSCLC) of over 100 µM, a TGI (HCC-2998 colon) of over 100 µM and a TGI (HCT-116 colon) of over 100 µM. It also gave a TGI (HCT-15 colon) of over 100 µM, a TGI (HL-60(TB) leukemia) of over 100 µM and a TGI (HOP-62 NSCLC) of over 100 µM. For the same compound, the TGI (HOP-92 NSCLC) was over 100 µM, the TGI (HS 578T breast) was over 100 µM and the TGI (HT29 colon) was over 100 µM. For the same compound, the TGI (IGROV1 ovarian) was over 100 µM, the TGI (K-562 leukemia) was over 100 µM and the TGI (KM12 colon) was over 100 µM. It also gave a TGI (LOX IMVI melanoma) of over 100 µM, a TGI (M14 melanoma) of over 100 µM and a TGI (MCF7 breast) of over 100 µM. The TGI (MDA-MB-231 breast) was over 100 µM, the TGI (MDA-MB-435) was over 100 µM and the TGI (MDA-N) was over 100 µM. For the same compound, the TGI (MOLT-4 leukemia) was over 100 µM, the TGI (NCI-H23 lung) was over 100 µM and the TGI (NCI-H460 lung) was over 100 µM. The TGI (NCI-H522 lung) was over 100 µM, the TGI (NCI/ADR-RES ovarian) was over 100 µM and the TGI (OVCAR-3 ovarian) was over 100 µM. It also gave a TGI (OVCAR-4 ovarian) of over 100 µM, a TGI (OVCAR-5 ovarian) of over 100 µM and a TGI (OVCAR-8 ovarian) of over 100 µM. For the same compound, the TGI (PC-3 prostate) was over 100 µM, the TGI (RXF 393 renal) was over 100 µM and the TGI (SF-268 CNS) was over 100 µM. The TGI (SF-295 CNS) was over 100 µM, the TGI (SF-539 CNS) was over 100 µM and the TGI (SK-MEL-2 melanoma) was over 100 µM. For the same compound, the TGI (SK-MEL-28 melanoma) was over 100 µM, the TGI (SK-MEL-5 melanoma) was over 100 µM and the TGI (SN12C renal) was over 100 µM. For the same compound, the TGI (SNB-19 CNS) was over 100 µM, the TGI (SR leukemia) was over 100 µM and the TGI (SW-620 colon) was over 100 µM. The TGI (T-47D breast) was over 100 µM, the TGI (TK-10 renal) was over 100 µM and the TGI (U251 CNS) was over 100 µM. For the same compound, the TGI (UACC-257 melanoma) was over 100 µM, the TGI (UACC-62 melanoma) was over 100 µM and the TGI (UO-31 renal) was over 100 µM.

`C=CC(O)C#Cc1cnc(OC)nc1OC` (configuration not stated) gave a TGI (786-0 renal) of over 100 µM, a TGI (A498 renal) of 33 µM and a TGI (A549 NSCLC) of over 100 µM. It also gave a TGI (ACHN renal) of over 100 µM, a TGI (BT-549 breast) of over 100 µM and a TGI (CAKI-1 renal) of over 100 µM. The TGI (CCRF-CEM leukemia) was 47.9 µM, the TGI (COLO 205 colon) was over 100 µM and the TGI (DU-145 prostate) was over 100 µM. For the same compound, the TGI (EKVX NSCLC) was over 100 µM, the TGI (HCC-2998 colon) was over 100 µM and the TGI (HCT-116 colon) was over 100 µM. It also gave a TGI (HCT-15 colon) of over 100 µM, a TGI (HL-60(TB) leukemia) of 43.9 µM and a TGI (HOP-62 NSCLC) of over 100 µM. It also gave a TGI (HOP-92 NSCLC) of over 100 µM, a TGI (HS 578T breast) of over 100 µM and a TGI (HT29 colon) of over 100 µM. It also gave a TGI (IGROV1 ovarian) of over 100 µM, a TGI (K-562 leukemia) of 66.6 µM and a TGI (KM12 colon) of over 100 µM. It also gave a TGI (LOX IMVI melanoma) of over 100 µM, a TGI (M14 melanoma) of over 100 µM and a TGI (MCF7 breast) of over 100 µM. For the same compound, the TGI (MDA-MB-231 breast) was over 100 µM, the TGI (MDA-MB-435) was over 100 µM and the TGI (MDA-N) was over 100 µM. For the same compound, the TGI (MOLT-4 leukemia) was over 100 µM, the TGI (NCI-H226 lung) was over 100 µM and the TGI (NCI-H23 lung) was over 100 µM. It also gave a TGI (NCI-H460 lung) of over 100 µM, a TGI (NCI-H522 lung) of over 100 µM and a TGI (NCI/ADR-RES ovarian) of over 100 µM. The TGI (OVCAR-3 ovarian) was over 100 µM, the TGI (OVCAR-4 ovarian) was over 100 µM and the TGI (OVCAR-5 ovarian) was over 100 µM. The TGI (OVCAR-8 ovarian) was over 100 µM, the TGI (PC-3 prostate) was over 100 µM and the TGI (RXF 393 renal) was over 100 µM. It also gave a TGI (SF-268 CNS) of over 100 µM, a TGI (SF-295 CNS) of over 100 µM and a TGI (SF-539 CNS) of over 100 µM. For the same compound, the TGI (SK-MEL-2 melanoma) was over 100 µM, the TGI (SK-MEL-28 melanoma) was over 100 µM and the TGI (SK-MEL-5 melanoma) was over 100 µM. The TGI (SN12C renal) was over 100 µM, the TGI (SNB-19 CNS) was over 100 µM and the TGI (SNB-75 CNS) was over 100 µM. It also gave a TGI (SR leukemia) of over 100 µM, a TGI (SW-620 colon) of over 100 µM and a TGI (T-47D breast) of over 100 µM. The TGI (TK-10 renal) was over 100 µM, the TGI (U251 CNS) was over 100 µM and the TGI (UACC-257 melanoma) was over 100 µM. It also gave a TGI (UACC-62 melanoma) of over 100 µM and a TGI (UO-31 renal) of over 100 µM.

With `O=C1C=CC(=O)N1n1c(Cc2ccccc2)n[nH]c1=O` the TGI (786-0 renal) was over 100 µM, the TGI (A498 renal) was over 100 µM and the TGI (A549 NSCLC) was over 100 µM. It also gave a TGI (ACHN renal) of over 100 µM, a TGI (BT-549 breast) of over 100 µM and a TGI (CAKI-1 renal) of over 100 µM. For the same compound, the TGI (CCRF-CEM leukemia) was over 100 µM, the TGI (COLO 205 colon) was over 100 µM and the TGI (DU-145 prostate) was over 100 µM. The TGI (EKVX NSCLC) was over 100 µM, the TGI (HCC-2998 colon) was over 100 µM and the TGI (HCT-116 colon) was over 100 µM. The TGI (HCT-15 colon) was over 100 µM, the TGI (HL-60(TB) leukemia) was over 100 µM and the TGI (HOP-62 NSCLC) was over 100 µM. It also gave a TGI (HOP-92 NSCLC) of over 100 µM, a TGI (HS 578T breast) of over 100 µM and a TGI (HT29 colon) of over 100 µM. It also gave a TGI (IGROV1 ovarian) of over 100 µM, a TGI (K-562 leukemia) of over 100 µM and a TGI (KM12 colon) of over 100 µM. It also gave a TGI (LOX IMVI melanoma) of over 100 µM, a TGI (MALME-3M melanoma) of over 100 µM and a TGI (MCF7 breast) of over 100 µM. For the same compound, the TGI (MDA-MB-231 breast) was over 100 µM, the TGI (MDA-MB-435) was over 100 µM and the TGI (MDA-N) was over 100 µM. For the same compound, the TGI (MOLT-4 leukemia) was over 100 µM, the TGI (NCI-H226 lung) was over 100 µM and the TGI (NCI-H23 lung) was over 100 µM. The TGI (NCI-H460 lung) was over 100 µM, the TGI (NCI-H522 lung) was over 100 µM and the TGI (NCI/ADR-RES ovarian) was over 100 µM. The TGI (OVCAR-3 ovarian) was over 100 µM, the TGI (OVCAR-4 ovarian) was over 100 µM and the TGI (OVCAR-5 ovarian) was over 100 µM. It also gave a TGI (OVCAR-8 ovarian) of over 100 µM, a TGI (PC-3 prostate) of over 100 µM and a TGI (RPMI-8226 leukemia) of over 100 µM. The TGI (RXF 393 renal) was over 100 µM, the TGI (SF-268 CNS) was over 100 µM and the TGI (SF-295 CNS) was over 100 µM. For the same compound, the TGI (SF-539 CNS) was over 100 µM, the TGI (SK-MEL-2 melanoma) was over 100 µM and the TGI (SK-MEL-28 melanoma) was over 100 µM. The TGI (SK-MEL-5 melanoma) was over 100 µM, the TGI (SK-OV-3 ovarian) was over 100 µM and the TGI (SN12C renal) was over 100 µM. For the same compound, the TGI (SNB-19 CNS) was over 100 µM, the TGI (SR leukemia) was over 100 µM and the TGI (SW-620 colon) was over 100 µM. The TGI (T-47D breast) was over 100 µM, the TGI (TK-10 renal) was over 100 µM and the TGI (U251 CNS) was over 100 µM. For the same compound, the TGI (UACC-257 melanoma) was over 100 µM, the TGI (UACC-62 melanoma) was over 100 µM and the TGI (UO-31 renal) was over 100 µM.
